Data taken from patent US20210275657A1, “NEOANTIGENS AND USES THEREOF” (BioNTech US Inc., priority 2018, published 2021).
Read-outs that look alike come from different tables or passages of the source. Where no end group is shown, it is not given here.

Settings: for Solubility in […] SS in D5W w/ 4% DMSO: […] sodium succinate in D5W; for Solubility in […] SS in D5W w/ 4% DMSO / Solubility in […] SS in D5W w/o DMSO / Solubility in 0.5 mM SS in D5W w/ 4% DMSO: no polyICLC; for solubility: without DMSO, after 6 hours; for solubility in 5 mM SS: 5 mM SS (higher SS concentration) in D5W; for Solubility in […] SS in D5W w/o DMSO / Solubility in Poly ICLC + […] SS in D5W w/o DMSO / Solubility in Poly ICLC + 5 mM SS in D5W w/o DMSO: no DMSO; for Solubility in 0.5 mM SS in D5W w/ 4% DMSO: 0.5 mM sodium succinate in D5W

| Sequence | Solubility in […] SS in D5W w/ 4% DMSO (4% DMSO) | Solubility in Poly ICLC + […] SS in D5W w/ 4% DMSO (with polyICLC, 4% DMSO) | solubility (0.4 mg/mL in […] SS) | solubility in 5 mM SS | Solubility in […] SS in D5W w/o DMSO | Solubility in Poly ICLC + […] SS in D5W w/o DMSO (with polyICLC) | Solubility in 0.5 mM SS in D5W w/ 4% DMSO (4% DMSO) | also measured |
| --- | --- | --- | --- | --- | --- | --- | --- | --- |
| ESKIMFATLQRSSLWC [Peptide L11g] | Yes | No |  |  |  |  |  |  |
| FLKAESKIMFATLQRS [Peptide L11f] | Yes |  | soluble | not soluble | Yes | Yes |  | solubility in low SS (lower SS concentration ([…] SS/D5W)): soluble |
| FLKAESKIMFATLQRSSLWCL [Peptide 11] |  | No |  |  |  |  |  |  |
| GPPARVPAVPFDLHFCRSSIMKPKRD [Peptide 8] | Yes | Yes |  |  | Yes | Yes | Yes | Solubility in Poly ICLC + 0.5 mM SS in D5W w/ 4% DMSO (with polyICLC, 0.5 mM SS in D5W, 4% DMSO): Yes; Solubility in Poly ICLC + 5 mM SS in D5W w/o DMSO (with polyICLC): Yes |
| GPPARVPAVPFDLHFCRSSIMKPKRD [Peptide L8] |  |  | soluble | soluble |  |  |  | solubility (5 mM SS): soluble |
| KAESKIMFATLQRSSLWCL [Peptide 11d] | Yes |  |  |  | Yes | Yes | Yes |  |
| KAESKIMFATLQRSSLWCL [Peptide L11d] |  |  | soluble |  |  |  |  |  |
| KPKRDGYMFLKAESKI [Peptide L10c] | Yes |  | soluble | soluble | Yes | Yes |  | solubility (5 mM SS): soluble; Solubility in Poly ICLC + 5 mM SS in D5W w/ 4% DMSO (with polyICLC, 4% DMSO): Yes; Solubility in Poly ICLC + 5 mM SS in D5W w/o DMSO (with polyICLC): Yes |
| KPKRDGYMFLKAESKIMFAT [Peptide 10b] | Yes | No |  |  |  |  | Yes |  |
| KPKRDGYMFLKAESKIMFATLQR [Peptide 10] | Yes | No |  |  |  |  |  | Solubility in Poly ICLC + 5 mM SS in D5W w/ 4% DMSO (with polyICLC, 4% DMSO): No |
| LHFCRSSIMKPKRDGYMFLKAESKI [Peptide 9] | Yes | Yes |  |  | Yes |  | Yes | Solubility in Poly ICLC + 5 mM SS in D5W w/o DMSO (with polyICLC): Yes |
| LHFCRSSIMKPKRDGYMFLKAESKI [Peptide L9] |  |  | soluble | soluble |  |  |  | solubility (5 mM SS): soluble |
| YMFLKAESKIMFATLQRSS [Peptide 11c] | Yes | No |  |  |  |  | Yes |  |
